# Laboratory results from US10406227B2, “Photoactivated molecules for light-induced modulation of the activity of electrically excitable cells and methods of using same” (University of Southern California, priority 2012, dated 2019).
# “Also recorded” adds a separate entry of the source.
# Key:
# [1] = tested on: primary cultured mouse chromaffin cells; experiment: Imaging RubpyC17 in live cells (membrane luminescence); format: cell-based
# Protocol: (§1) Cells were imaged at 1-3 days after plating. The glass-bottomed chambers with adherent cells were washed twice with PBS and then filled with standard extracellular solution consisting of 140 mM NaCl, 2.8 mM KCl, 10 mM HEPES, 1 mM MgCl2, 2 mM CaCl2, and 10 mM glucose, pH adjusted to 7.2-7.4 and osmolarity adjusted to 290-310 mOsm. The chamber was then mounted on an Olympus IX70 inverted microscope stage for imaging, using a Cascade 512B EMCCD camera, operated by Metamorph software. Initial imaging was done with cells in extracellular solution without RubpyC17, first under brightfield to evaluate cell health and morphology, then under widefield argon ion laser illumination at 488 nm (Coherent, Innova 90-5, Santa Clara, Calif.), to evaluate autofluorescence. Next, the extracellular solution was removed and replaced with extracellular solution containing the RubpyC17 compound (10 μM in ≤0.01% DMSO, final concentrations). Cell images were then acquired with illumination at 488 nm (collected with a long-pass red emission filter). For electrophysiological experiments, RubpyC17 compound was added to the extracellular solution (2-10 μM in ≤0.01% DMSO, final concentrations as indicated) and cells were incubated for 1.5-45 min, as indicated, then washed with extracellular solution without RubpyC17. Some chromaffin cells were also exposed continuously to 490-900 nM RubpyC17-containing extracellular solution.
# (§2) Illustrated here are rat insulinoma INS cells (FIG. 1C, top), human embryonic kidney (HEK293T) cells (FIG. 1C, middle), and primary cultured mouse chromaffin cells (FIG. 1C, bottom). […] All cell types preserved morphology for at least 10 minutes. […] One embodiment of the possible light-induced electron transfer is depicted in FIG. 1D.
# INS cells = experiment: as above; format: cell-based, rat
# Protocol: as §1, §2
# RCS rats = experiment: Pupillary light reflex after intravitreal injection; format: in vivo, rat
# Source text: FIG. 16 depicts the papillary light response in RCS rats.
# This finding was reproduced in 3 of 3 RCS rats injected with Rubpy-C17, and in 2 of 2 control (sham injection) RCS rats.
# INS and HEK293T cells = experiment: Time course of light-induced membrane potential change in single cells (patch clamp); format: cell-based
# Protocol: Membrane potential was monitored using whole cell patch clamp in current-clamp mode. Cultured cells (INS and HEK293) were plated on a glass-bottomed culture dishes 1-3 days prior to recording. Cells were incubated in standard extracellular solution with or without 10 μM RubpyC17 compound for approximately 1.5-2 minutes, then washed and incubated with standard extracellular solution without additional supplementation, or with 2-5 mM ascorbate, 100 μM sodium ferrocyanide, or 100-200 μM potassium ferricyanide, as indicated. The chamber was transferred to the microscope stage. Extracellular solution consisted of 140 mM NaCl, 2.8 mM KCl, 10 mM HEPES, 1 mM MgCl2, 2 mM CaCl2, 10 mM glucose, pH adjusted to 7.3, and osmolarity adjusted to 300-310. Conventional whole-cell patch clamp recordings were performed with an EPC-9 amplifier and Pulse software (HEKA Electronics). Pipette electrodes of 1.8-3.5 Mohm were fire polished before use. Intracellular solution consisted of: 145 mM KCl, 10 mM NaCl, 1 mM MgCl2, 1 mM EGTA, 2 mM ATP, 0.3 mM GTP and 10 mM HEPES, pH adjusted to 7.3 and osmolarity adjusted to 290-300 mOsm. To monitor changes in membrane voltage/potential, cells were patch clamped in current-clamp mode. Access resistances were in the range of 3-8 Mohm. Using Pulse, membrane potentials were recorded before, during and after illumination by the argon ion laser at 488 nm with an irradiance value of 0.458 mE s^−1 m^−2 or by a xenon lamp source through a 470/40 nm bandpass excitation filter with an irradiance value of 0.480 mE s^−1 m^−2. The duration of illumination varied and the timing is indicated by bars on the figures.
# It was discovered that luminescent cells undergo depolarization when illuminated for 25 seconds or longer when reductants (e.g., ascorbate) are present or for 10 seconds or longer when oxidants (e.g., ferricyanide) are present (FIG. 2A). Other oxidants or reductants are used in several embodiments, such as those that are, normally present (or biologically compatible) in the environment of a certain target tissue. In several embodiments, it is possible that light-induced depolarization or hyperpolarization amplitude or rate is controlled by varying illumination time or intensity.
# To reach a maximum effect, the light-triggered depolarization in RubpyC17-treated cells requires on the order of 30 seconds of continuous illumination at 0.46-0.48 mE s−1 m2 (FIGS. 2B-F) The time course observed is dependent on several factors, and may be greater or lesser during in vivo applications. One, it is related to the probability of photon absorption per unit time by membrane-associated RubpyC17, which depends on the concentration of RubpyC17, the partitioning into the membrane, and the photon flux. […]
# [2] = 10 μM in bath, 488 nm excitation
# [3] = 10 minutes after RubpyC17 removal
substance,measurement,setting,value
[Ru(bpy)2(bpy-C17)](PF6)2 [RubpyC17],time cell morphology preserved,[1]; 10 μM RubpyC17,at least 10 minutes
same,incorporation into plasma membrane (membrane-localized luminescence),[1]; [2],rapidly and stably incorporates into mammalian cell membranes
same,membrane luminescence after removal from bath solution,[1]; [3],still observed
same,time cell morphology preserved,INS cells; 10 μM RubpyC17,at least 10 minutes
same,incorporation into plasma membrane (membrane-localized luminescence),INS cells; [2],rapidly and stably incorporates into mammalian cell membranes
same,membrane luminescence after removal from bath solution,INS cells; [3],still observed
same,pupillary light reflex time,RCS rats; injected eye,< 3 s
same,pupillary light reflex,RCS rats; injected eye vs non-injected eye,vigorous pupillary light reflex was observed; also recorded: pupil constricts
same,continuous illumination to reach maximum depolarization,INS and HEK293T cells; 0.46-0.48 mE s−1 m2,~30 s
same,illumination duration giving membrane potential change,"INS and HEK293T cells; oxidants (e.g., ferricyanide) present",≥ 10 s
same,reversibility of light-induced depolarization,INS and HEK293T cells; presence of reductants,appears to be irreversible
same,illumination duration giving membrane potential change,"INS and HEK293T cells; reductants (e.g., ascorbate) present",≥ 25 s
